Source: US8987256B2, “Oxo-heterocyclic substituted carboxylic acid derivatives and the use thereof” (Bayer Intellectual Property GmbH, priority 2008, dated 2015)

Experiments:
[1] = molecular target: T1, soluble guanylate cyclase (sGC) (Rattus norvegicus, UniProt P20595); assay: Activating action at the sGC enzyme in vitro (PPi detection, luciferase); format: biochemical; conditions: for EC50: read-out: EC50 (concentration at 50% of maximum efficacy), activating action at the sGC enzyme
T1 construct: made in house; host or cells: baculovirus/Sf9 insect cells
T1 sequence (P20595 1-619): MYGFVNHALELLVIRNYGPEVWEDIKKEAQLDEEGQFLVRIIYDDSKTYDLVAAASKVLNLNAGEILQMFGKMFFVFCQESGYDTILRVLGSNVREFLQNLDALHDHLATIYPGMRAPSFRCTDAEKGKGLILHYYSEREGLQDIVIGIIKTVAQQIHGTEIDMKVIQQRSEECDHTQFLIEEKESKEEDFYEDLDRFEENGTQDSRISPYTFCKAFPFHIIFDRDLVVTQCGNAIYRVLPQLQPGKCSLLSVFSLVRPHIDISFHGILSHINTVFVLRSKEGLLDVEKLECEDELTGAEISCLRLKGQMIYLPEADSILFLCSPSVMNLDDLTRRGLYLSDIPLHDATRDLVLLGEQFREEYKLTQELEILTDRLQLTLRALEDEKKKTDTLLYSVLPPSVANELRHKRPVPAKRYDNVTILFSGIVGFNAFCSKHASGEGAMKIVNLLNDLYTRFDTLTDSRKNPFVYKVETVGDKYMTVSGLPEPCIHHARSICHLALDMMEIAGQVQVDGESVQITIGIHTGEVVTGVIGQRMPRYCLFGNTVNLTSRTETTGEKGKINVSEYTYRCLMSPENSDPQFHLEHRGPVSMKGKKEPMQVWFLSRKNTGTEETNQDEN
T1 sequence (P19686 1-690 partner): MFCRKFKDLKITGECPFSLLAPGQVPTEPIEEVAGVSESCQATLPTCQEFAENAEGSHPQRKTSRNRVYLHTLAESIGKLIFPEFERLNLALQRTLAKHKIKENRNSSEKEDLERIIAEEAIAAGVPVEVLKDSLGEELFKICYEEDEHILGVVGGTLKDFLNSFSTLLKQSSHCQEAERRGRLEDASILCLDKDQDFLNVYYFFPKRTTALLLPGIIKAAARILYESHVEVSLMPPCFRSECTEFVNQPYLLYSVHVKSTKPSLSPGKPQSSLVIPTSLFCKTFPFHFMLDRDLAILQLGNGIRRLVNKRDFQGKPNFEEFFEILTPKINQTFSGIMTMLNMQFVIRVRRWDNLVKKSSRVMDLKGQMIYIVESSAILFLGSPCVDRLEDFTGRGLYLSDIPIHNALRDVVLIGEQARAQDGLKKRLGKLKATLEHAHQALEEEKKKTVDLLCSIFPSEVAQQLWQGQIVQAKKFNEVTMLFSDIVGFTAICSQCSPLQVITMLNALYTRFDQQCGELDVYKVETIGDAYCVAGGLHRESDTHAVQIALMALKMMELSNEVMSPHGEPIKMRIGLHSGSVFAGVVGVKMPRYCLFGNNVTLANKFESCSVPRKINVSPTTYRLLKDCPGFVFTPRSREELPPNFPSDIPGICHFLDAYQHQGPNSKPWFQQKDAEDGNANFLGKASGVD
Method: Soluble guanylate cyclase (sGC) converts on stimulation GTP into cGMP and pyrophosphate (PPi). PPi is detected with the aid of the assay described below. The signal produced in the assay increases as the reaction progresses and serves as a measure of the sGC enzyme activity under the given stimulation.
To carry out the assay, 29 μl of enzyme solution [0-10 nM soluble guanylate cyclase (prepared according to Honicka et al., J. Mol. Med. 77, 14-23 (1999)) in 50 mM TEA, 2 mM MgCl2, 0.1% BSA (fraction V), 0.005% Brij®, pH 7.5] are initially introduced into a microplate, and 1 μl of the substance to be tested (as a serially diluted solution in DMSO) is added. The mixture is incubated at room temperature for 10 min. Then 20 μl of detection mix [1.2 nM Firefly Luciferase (Photinus pyralis luciferase, Promega), 29 μM dehydroluciferin (prepared according to Bitler & McElroy, Arch. Biochem. Biophys. 72, 358 (1957)), 122 μM luciferin (Promega), 153 μM ATP (Sigma) and 0.4 mM DTT (Sigma) in 50 mM TEA, 2 mM MgCl2, 0.1% BSA (fraction V), 0.005% Brij®, pH 7.5] are added. The enzyme reaction is started by adding 20 μl of substrate solution [1.25 mM guanosine 5′-triphosphate (Sigma) in 50 mM TEA, 2 mM MgCl2, 0.1% BSA (fraction V), 0.005% Brij®, pH 7.5] and measured continuously in a luminometer. The extent of the stimulation by the substance to be tested can be determined relative to the signal of the unstimulated reaction.
The activation of heme-free guanylate cyclase is examined by addition of 25 μM of 1H-1,2,4-oxadiazolo[4,3-a]quinoxalin-1-one (ODQ) to the enzyme solution and subsequent incubation for 30 minutes and compared to the stimulation of the native enzyme.

[2] = molecular target: T2, recombinant guanylate cyclase reporter cell line (Rattus norvegicus, UniProt P20595); assay: sGC-activating activity in the CHO reporter cell in vitro; format: cell-based
T2 construct: expressed in transfected cells; host or cells: CHO reporter cell line
T2 sequence (P20595 1-619): T1 sequence (P20595 1-619)
T2 sequence (P19686 1-690 partner): T1 sequence (P19686 1-690 partner)
Method: The cellular action of the compounds according to the invention is determined at a recombinant guanylate cyclase reporter cell line, as described in F. Wunder et al., Anal. Biochem. 339, 104-112 (2005).

[3] = system: saphenous artery rings; assay: Vasorelaxant effect in vitro (phenylephrine-contracted artery rings); parameters: species or system Rabbits; conditions: concentration reducing phenylephrine-induced contraction by 50%
Method: Rabbits are anesthetized and sacrificed by intravenous injection of thiopental sodium (about 50 mg/kg) and exsanguinated. The saphenous artery is removed and divided into rings 3 mm wide. The rings are mounted singly on in each case a pair of triangular hooks open at the end and made of 0.3 mm-thick special wire (Remanium®). Each ring is placed under an initial tension in 5 ml organ baths with Krebs-Henseleit solution which is at 37° C., is gassed with carbogen and has the following composition: NaCl 119 mM; KCl 4.8 mM; CaCl2×2H2O 1 mM; MgSO4×7H2O 1.4 mM; KH2PO4 1.2 mM; NaHCO3 25 mM; glucose 10 mM; bovine serum albumin 0.001%. The force of contraction is detected with Statham UC2 cells, amplified and digitized via A/D converters (DAS-1802 HC, Keithley Instruments, Munich) and recorded in parallel on chart recorders. Contractions are induced by addition of phenylephrine.
After several (generally 4) control cycles, the substance to be investigated is added in each further run in increasing dosage, and the level of the contraction achieved under the influence of the test substance is compared with the level of the contraction reached in the last preceding run. The concentration necessary to reduce the contraction reached in the preceding control by 50% is calculated from this (IC50). The standard application volume is 5 μl. The proportion of DMSO in the bath solution corresponds to 0.1%.

SMILES	MEC (minimum effective concentration), activating action at the sGC enzyme [1] [nM]	EC50 [1] [nM]	MEC (minimum effective concentration), sGC-activating activity in the CHO reporter cell [2] [nM]	IC50 ([3]; Oryctolagus cuniculus) [nM]	IC50 [3] [nM]
CC1(C(=O)O)Cc2cccc(NC(=O)C(c3ccc(CN4N=C(c5ccccc5)OCC4=O)cc3)C3CCCC3)c2C1 (single isomer, unassigned) [Example 46, 4-[(Cyclopentyl{4-[(5-oxo-2-phenyl-5,6-dihydro-4H-1,3,4-oxadiazin-4-yl)methyl]phenyl}-acetyl)amino]-2-methyl-2,3-dihydro-1H-indene-2-carboxylic acid]	4.1	130	3	110	–
CCC(C)C(C(=O)Nc1cccc(CCC(=O)O)c1C)c1ccc(CN2N=C(c3ccccc3)OCC2=O)cc1 (single isomer, unassigned) [Example 77, 3-{2-Methyl-3-[(3-methyl-2-{4-[(5-oxo-2-phenyl-5,6-dihydro-4H-1,3,4-oxadiazin-4-yl)methyl]phenyl}pentanoyl)amino]phenyl}propanoic acid]	0.4	24	1	625	–
Cc1c(CCC(=O)O)cccc1NC(=O)C(c1ccc(CN2N=C(c3ccccc3)OCC2=O)cc1)C1CCCC1 (single isomer, unassigned) [Example 115, 3-{3-[(cyclopcntyl{4-[(5-oxo-2-phcnyl-5,6-dihydro-4H-1,3,4-oxadiazin-4-yl)mcthyl]phcnyl}acetyl)amino]-2-mcthylphcnyl}propanoic acid]	1.6	40	3	163	–
O=C(O)C1Cc2cccc(NC(=O)C(c3ccc(CN4N=C(c5ccccc5)OCC4=O)cc3)C3CCCC3)c2C1 (single isomer, unassigned) [Example 126, 4-[(cyclopcntyl{4-[(5-oxo-2-phcnyl-5,6-dihydro-4H-1,3,4-oxadiazin-4-yl)mcthyl]phcnyl}acetyl)amino]-2,3-dihydro-1H-indenc-2-carboxylic acid]	10	320	30	145	–
CC(C(C(=O)Nc1cccc(CC2(C(=O)O)CC2)c1)c1ccc(CN2N=C(c3ccccc3)OCC2=O)cc1)C(F)(F)F (single isomer, unassigned) [Example 164, 1-{3-[(4,4,4-trifluoro-3-methyl-2-{4-[(5-oxo-2-phenyl-5,6-dihydro-4H-1,3,4-oxadiazin-4-yl)methyl]phenyl}-butanoyl)amino]benzyl}cyclopropanecarboxylic acid]	0.5	6.1	0.3	–	26
CC(C(C(=O)Nc1cc(CCC(=O)O)ccc1F)c1ccc(CN2N=C(c3ccccc3)OCC2=O)cc1)C(F)(F)F (centres unmarked) [Example 185, 3-{4-fluoro-3-[(4,4,4-trifluoro-3-methyl-2-{4-[(5-oxo-2-phenyl-5,6-dihydro-4H-1,3,4-oxadiazin-4-yl)methyl]-phenyl}butanoyl)amino]phenyl}propanoic acid]	–	–	0.3	64	–

Continued by falling EC50 [1], values first:

MEC (minimum effective concentration), activating action at the sGC enzyme [1] [nM]	EC50 [1] [nM]	MEC (minimum effective concentration), sGC-activating activity in the CHO reporter cell [2] [nM]	IC50 ([3]; Oryctolagus cuniculus) [nM]	IC50 [3] [nM]	SMILES
5.1	330	10	52	–	CC(C)(Cc1cccc(NC(=O)C(c2ccc(Cn3nc(-c4ccccc4)ccc3=O)cc2)C2CCCC2)c1)C(=O)O (single isomer, unassigned) [Example 138, 3-{3-[(cyclopentyl{4-[(6-oxo-3-phenylpyridazin-1(6H)-yl)methyl]phenyl}acetyl)amino]phenyl}-2,2-dimethylpropanoic acid]
1.4	73	1	180	–	CCC(C)C(C(=O)Nc1cccc2c1CC(C)(C(=O)O)C2)c1ccc(CN2N=C(c3ccccc3)OCC2=O)cc1 (single isomer, unassigned) [Example 86, 2-Methyl-4-[(3-methyl-2-{4-[(5-oxo-2-phenyl-5,6-dihydro-4H-1,3,4-oxadiazin-4-yl)methyl]-phenyl}pentanoyl)amino]-2,3-dihydro-1H-indene-2-carboxylic acid]
2.5	30	3	356	–	CC(C(C(=O)Nc1cccc(CCC(=O)O)c1)c1ccc(CN2N=C(c3ccccc3)OCC2=O)cc1)C(F)(F)F (single isomer, unassigned) [Example 192, 3-{3-[(4,4,4-Trifluoro-3-methyl-2-{4-[(5-oxo-2-phenyl-5,6-dihydro-4H-1,3,4-oxadiazin-4-yl)methyl]phenyl}butanoyl)amino]phenyl}propanoic acid]
0.4	2.4	0.3	–	4.9	CC(C(C(=O)Nc1cccc(CC2(C(=O)O)CC2)c1)c1ccc(CN2N=C(c3ccccc3)OCC2=O)cc1)C(F)(F)F (single isomer, unassigned) [Example 166, 1-{3-[(4,4,4-trifluoro-3-methyl-2-{4-[(5-oxo-2-phenyl-5,6-dihydro-4H-1,3,4-oxadiazin-4-yl)methyl]phenyl}-butanoyl)amino]benzyl}cyclopropanecarboxylic acid]
